Results reported in publication PMC5218480 (PLoS ONE, 2017).

Tested on: MV-4-11 cells
Assay: Gene expression microarray analysis (Affymetrix PrimeView) and GSEA
Format: cell-based, human
Set-up: RFU PODN (11730768_x_at) / Fold change /veh PODN (11730768_x_at) / RFU LINC00158 (11744669_a_at) / Fold change /veh LINC00158 (11744669_a_at) / RFU DUSP10 (11751237_a_at) / Fold change /veh DUSP10 (11751237_a_at) / RFU ID3 (11757404_x_at) / Fold change /veh ID3 (11757404_x_at) / RFU PLEKHG5 (11737974_s_at) / Fold change /veh PLEKHG5 (11737974_s_at) / RFU LRRC4B (11730491_at) / Fold change /veh LRRC4B (11730491_at) / RFU GIMAP4 (11747438_a_at) / Fold change /veh GIMAP4 (11747438_a_at) / RFU KRT8 (11758183_x_at) / Fold change /veh KRT8 (11758183_x_at) / RFU CNN1 (11734310_a_at) / Fold change /veh CNN1 (11734310_a_at) / RFU VPS37D (11726825_at) / Fold change /veh VPS37D (11726825_at) / RFU C10orf10 (11716522_x_at) / Fold change /veh C10orf10 (11716522_x_at) / RFU KIR2DL2 /// KIR2DL4 /// KIR2DL5A /// KIR2DL5B /// KIR2DS1 /// KIR2DS2 /// KIR2DS3 /// KIR2DS4 /// KIR3DL3 /// KIR3DL3 /// KIR3DS1 (11738374_at) / Fold change /veh KIR2DL2 /// KIR2DL4 /// KIR2DL5A /// KIR2DL5B /// KIR2DS1 /// KIR2DS2 /// KIR2DS3 /// KIR2DS4 /// KIR3DL3 /// KIR3DL3 /// KIR3DS1 (11738374_at) / RFU C1QL1 (11718748_at) / Fold change /veh C1QL1 (11718748_at) / RFU TMPRSS4 (11747572_a_at) / Fold change /veh TMPRSS4 (11747572_a_at) / RFU HAMP (11756126_x_at) / Fold change /veh HAMP (11756126_x_at) / RFU RNFT2 (11725882_a_at) / Fold change /veh RNFT2 (11725882_a_at) / RFU NR4A2 (11747474_a_at) / Fold change /veh NR4A2 (11747474_a_at) / RFU ABCC12 (11746883_a_at) / Fold change /veh ABCC12 (11746883_a_at) / RFU TMEM136 (11760407_x_at) / Fold change /veh TMEM136 (11760407_x_at) / RFU CLDN22 /// WWC2 (11732394_at) / Fold change /veh CLDN22 /// WWC2 (11732394_at) / RFU HLA-DPB1 (11760878_x_at) / Fold change /veh HLA-DPB1 (11760878_x_at) / RFU SPINT1 (11716480_a_at) / Fold change /veh SPINT1 (11716480_a_at) / RFU GAP43 (11754022_s_at) / Fold change /veh GAP43 (11754022_s_at) / RFU A4GNT (11735810_at) / Fold change /veh A4GNT (11735810_at) / RFU PRB3 (11715151_x_at) / Fold change /veh PRB3 (11715151_x_at) / RFU TUBB4B (11761932_at) / Fold change /veh TUBB4B (11761932_at) / RFU CAPN14 (11732068_a_at) / Fold change /veh CAPN14 (11732068_a_at) / RFU TMCC2 (11721928_a_at) / Fold change /veh TMCC2 (11721928_a_at) / RFU IRGQ (11745062_a_at) / Fold change /veh IRGQ (11745062_a_at) / RFU FAM174B (11720279_a_at) / Fold change /veh FAM174B (11720279_a_at) / RFU TMPRSS4 (11748680_a_at) / Fold change /veh TMPRSS4 (11748680_a_at) / RFU FAM212B (11763350_a_at) / Fold change /veh FAM212B (11763350_a_at) / RFU PLEKHG5 (11743358_a_at) / Fold change /veh PLEKHG5 (11743358_a_at) / RFU ZSCAN30 (11745921_a_at) / Fold change /veh ZSCAN30 (11745921_a_at) / RFU CMKLR1 (11741424_a_at) / Fold change /veh CMKLR1 (11741424_a_at) / RFU LOC101060620 /// MAPK8IP1 (11723275_at) / Fold change /veh LOC101060620 /// MAPK8IP1 (11723275_at) / RFU SPTSSB (11747773_x_at) / Fold change /veh SPTSSB (11747773_x_at) / RFU PRSS12 (11739890_at) / Fold change /veh PRSS12 (11739890_at) / RFU BIN1 (11741810_x_at) / Fold change /veh BIN1 (11741810_x_at) / RFU WNT11 (11732464_a_at) / Fold change /veh WNT11 (11732464_a_at) / RFU C10orf10 (11716521_a_at) / Fold change /veh C10orf10 (11716521_a_at) / RFU C5orf56 (11738089_at) / Fold change /veh C5orf56 (11738089_at) / RFU CYB561 (11721691_x_at) / Fold change /veh CYB561 (11721691_x_at) / RFU ANKRD19P (11752326_a_at) / Fold change /veh ANKRD19P (11752326_a_at) / RFU OR2T12 /// OR2T33 /// OR2T8 (11738714_s_at) / Fold change /veh OR2T12 /// OR2T33 /// OR2T8 (11738714_s_at) / RFU VCAN (11748164_a_at) / Fold change /veh VCAN (11748164_a_at) / RFU JSRP1 (11732532_at) / Fold change /veh JSRP1 (11732532_at) / RFU KRTAP10-11 (11738290_x_at) / Fold change /veh KRTAP10-11 (11738290_x_at) / RFU MYO3A (11730013_a_at) / Fold change /veh MYO3A (11730013_a_at) / RFU EBF3 (11725865_a_at) / Fold change /veh EBF3 (11725865_a_at) / RFU CAMK2N1 (11719241_x_at) / Fold change /veh CAMK2N1 (11719241_x_at) / RFU C5orf56 (11738088_a_at) / Fold change /veh C5orf56 (11738088_a_at) / RFU OLFML3 (11715873_a_at) / Fold change /veh OLFML3 (11715873_a_at) / RFU LOC100653217 /// NTM (11731650_a_at) / Fold change /veh LOC100653217 /// NTM (11731650_a_at) / RFU MAPK11 (11762145_a_at) / Fold change /veh MAPK11 (11762145_a_at) / RFU FIZ1 (11724087_x_at) / Fold change /veh FIZ1 (11724087_x_at) / RFU OASL (11726364_x_at) / Fold change /veh OASL (11726364_x_at) / RFU SOX15 (11748057_x_at) / Fold change /veh SOX15 (11748057_x_at) / RFU CD79A (11719716_a_at) / Fold change /veh CD79A (11719716_a_at) / RFU HIST1H1D (11736915_at) / Fold change /veh HIST1H1D (11736915_at) / RFU CASKIN2 (11723855_a_at) / Fold change /veh CASKIN2 (11723855_a_at) / RFU LOC730098 (11760151_x_at) / Fold change /veh LOC730098 (11760151_x_at) / RFU OR4N2 (11742367_at) / Fold change /veh OR4N2 (11742367_at) / RFU PRRT2 (11749266_a_at) / Fold change /veh PRRT2 (11749266_a_at) / RFU SNX32 (11753110_a_at) / Fold change /veh SNX32 (11753110_a_at) / RFU CDHR5 (11726645_a_at) / Fold change /veh CDHR5 (11726645_a_at) / RFU RCAN1 (11760418_a_at) / Fold change /veh RCAN1 (11760418_a_at) / RFU FAM167A (11723789_a_at) / Fold change /veh FAM167A (11723789_a_at) / RFU FAM26E (11764081_at) / Fold change /veh FAM26E (11764081_at) / RFU ISYNA1 (11749810_s_at) / Fold change /veh ISYNA1 (11749810_s_at) / RFU ACY1 (11761880_at) / Fold change /veh ACY1 (11761880_at) / RFU 11764098_at / Fold change /veh 11764098_at / RFU SAMD14 (11745864_x_at) / Fold change /veh SAMD14 (11745864_x_at) / RFU NPB (11741838_a_at) / Fold change /veh NPB (11741838_a_at) / RFU TMPRSS6 (11731388_a_at) / Fold change /veh TMPRSS6 (11731388_a_at) / RFU KRTAP10-2 (11738614_at) / Fold change /veh KRTAP10-2 (11738614_at) / RFU ARHGAP8 /// PRR5-ARHGAP8 (11727945_x_at) / Fold change /veh ARHGAP8 /// PRR5-ARHGAP8 (11727945_x_at) / RFU KRTAP5-7 /// NADSYN1 (11734609_at) / Fold change /veh KRTAP5-7 /// NADSYN1 (11734609_at) / RFU RASL12 (11751679_a_at) / Fold change /veh RASL12 (11751679_a_at) / RFU CDKN2B (11736163_a_at) / Fold change /veh CDKN2B (11736163_a_at) / RFU PRF1 (11729649_at) / Fold change /veh PRF1 (11729649_at) / RFU, ZNF638 /// ZNF638-IT1 / Fold change vs veh, ZNF638 /// ZNF638-IT1 / RFU, PANK3 / Fold change vs veh, PANK3 / RFU, SH3YL1 / Fold change vs veh, SH3YL1 / RFU, ZEB2 / Fold change vs veh, ZEB2 / RFU, NRIP1 / Fold change vs veh, NRIP1 / RFU, PTTG1IP / Fold change vs veh, PTTG1IP / RFU, CAPN2 / Fold change vs veh, CAPN2 / RFU, MED14 / Fold change vs veh, MED14 / RFU, SNORA58 / Fold change vs veh, SNORA58 / RFU, C1orf63 / Fold change vs veh, C1orf63 / RFU, LRRFIP1 / Fold change vs veh, LRRFIP1 / RFU, NDUFAF7 / Fold change vs veh, NDUFAF7 / RFU, SLC12A2 / Fold change vs veh, SLC12A2 / RFU, IBTK / Fold change vs veh, IBTK / RFU, ESF1 / Fold change vs veh, ESF1 / Fold change vs veh, TMEM50B / RFU, TAOK1 / Fold change vs veh, TAOK1 / RFU, ACBD3 / Fold change vs veh, ACBD3 / RFU, TMA16 / Fold change vs veh, TMA16 / RFU, RWDD3 / Fold change vs veh, RWDD3 / RFU, BCAT1 / Fold change vs veh, BCAT1 / RFU, EDEM3 / Fold change vs veh, EDEM3 / RFU, TMEM33 / Fold change vs veh, TMEM33 / RFU, WDR75 / Fold change vs veh, WDR75 / RFU, AHCTF1 / Fold change vs veh, AHCTF1 / RFU, TFRC / Fold change vs veh, TFRC / RFU, ZDHHC17 / Fold change vs veh, ZDHHC17 / RFU, NOM1 / Fold change vs veh, NOM1 / RFU, ARL8B / Fold change vs veh, ARL8B / RFU, ZBTB11 / Fold change vs veh, ZBTB11 / RFU, TAMM41 / Fold change vs veh, TAMM41 / RFU, KIAA1704 /// LOC100996395 / Fold change vs veh, KIAA1704 /// LOC100996395 / RFU, ING1 / Fold change vs veh, ING1 / RFU, TRMT61B / Fold change vs veh, TRMT61B / RFU, FUBP3 / Fold change vs veh, FUBP3 / RFU, TP53 / Fold change vs veh, TP53 / RFU, TNKS2 / Fold change vs veh, TNKS2 / RFU, ZFP14 / Fold change vs veh, ZFP14 / RFU, ACTR2 / Fold change vs veh, ACTR2 / RFU, PPP3R1 / Fold change vs veh, PPP3R1 / RFU, PIK3R1 / Fold change vs veh, PIK3R1 / RFU, HNRNPA1 / Fold change vs veh, HNRNPA1 / RFU, RNF170 / Fold change vs veh, RNF170 / RFU, ZNF28 / Fold change vs veh, ZNF28 / RFU, RNGTT / Fold change vs veh, RNGTT / RFU, OGT / Fold change vs veh, OGT / RFU, BRD1 / Fold change vs veh, BRD1 / RFU, MARS / Fold change vs veh, MARS / RFU, ZNF655 / Fold change vs veh, ZNF655 / RFU, FAHD1 / Fold change vs veh, FAHD1 / RFU, BDP1 / Fold change vs veh, BDP1 / RFU, LRRCC1 / Fold change vs veh, LRRCC1 / RFU, ARID1A / Fold change vs veh, ARID1A / RFU, ZNF146 / Fold change vs veh, ZNF146 / RFU, ZNF330 / Fold change vs veh, ZNF330 / RFU, GPN3 / Fold change vs veh, GPN3 / RFU, C9orf123 / Fold change vs veh, C9orf123 / RFU, N4BP2L2 / Fold change vs veh, N4BP2L2 / RFU, ARFIP1 / Fold change vs veh, ARFIP1 / RFU, FAM179B / Fold change vs veh, FAM179B / RFU, BCL10 / Fold change vs veh, BCL10 / RFU, UHRF1BP1L / Fold change vs veh, UHRF1BP1L / RFU, BET1 / Fold change vs veh, BET1 / RFU, CNOT2 / Fold change vs veh, CNOT2 / RFU, ZNF268 / Fold change vs veh, ZNF268 / Fold change vs veh, ZNF507 / RFU, DGCR2 / Fold change vs veh, DGCR2 / RFU, WDSUB1 / Fold change vs veh, WDSUB1 / Fold change vs veh, HSP90B1 /// MIR3652 / RFU, ADSS / Fold change vs veh, ADSS / RFU, GK / Fold change vs veh, GK / RFU, ZNF148 / Fold change vs veh, ZNF148 / RFU, TAF9 / Fold change vs veh, TAF9 / RFU, SLC1A5 / Fold change vs veh, SLC1A5 / RFU, SLMO2 / Fold change vs veh, SLMO2 / RFU, ABCC4 / Fold change vs veh, ABCC4 / RFU, LOC101060439 /// RAP1B / Fold change vs veh, LOC101060439 /// RAP1B / RFU, RFX7 / Fold change vs veh, RFX7 / RFU, GTPBP10 / Fold change vs veh, GTPBP10 / RFU, CNEP1R1 / Fold change vs veh, CNEP1R1 / RFU, BIVM-ERCC5 /// ERCC5 / Fold change vs veh, BIVM-ERCC5 /// ERCC5 / RFU, ILF3 / Fold change vs veh, ILF3 / RFU 11762660_at / Fold change /veh 11762660_at / RFU VCAN (11757783_s_at) / Fold change /veh VCAN (11757783_s_at) / RFU DDX43 (11728927_at) / Fold change /veh DDX43 (11728927_at) / RFU KRT8 (11758188_x_at) / Fold change /veh KRT8 (11758188_x_at) / RFU NKD1 (11759106_at) / Fold change /veh NKD1 (11759106_at) / RFU SRD5A1 (11742802_a_at) / Fold change /veh SRD5A1 (11742802_a_at) / RFU TPSAB1 /// TPSB2 (11721975_s_at) / Fold change /veh TPSAB1 /// TPSB2 (11721975_s_at) / RFU GSTM3 (11746129_a_at) / Fold change /veh GSTM3 (11746129_a_at) / RFU IL23R (11737362_x_at) / Fold change /veh IL23R (11737362_x_at) / RFU TMEM51 (11727254_a_at) / Fold change /veh TMEM51 (11727254_a_at) / RFU PIWIL2 (11732686_x_at) / Fold change /veh PIWIL2 (11732686_x_at) / RFU ORM1 (11744905_x_at) / Fold change /veh ORM1 (11744905_x_at) / RFU CCDC152 (11743942_at) / Fold change /veh CCDC152 (11743942_at) / RFU ECM1 (11717891_a_at) / Fold change /veh ECM1 (11717891_a_at) / RFU IL23R (11748794_a_at) / Fold change /veh IL23R (11748794_a_at) / RFU TNFAIP8L3 (11732012_x_at) / Fold change /veh TNFAIP8L3 (11732012_x_at) / RFU MBOAT4 (11741988_at) / Fold change /veh MBOAT4 (11741988_at) / RFU 11764193_at / Fold change /veh 11764193_at / RFU TMEM53 (11763286_at) / Fold change /veh TMEM53 (11763286_at) / RFU MAGEB2 (11727129_at) / Fold change /veh MAGEB2 (11727129_at) / RFU TMEM200A (11744735_a_at) / Fold change /veh TMEM200A (11744735_a_at) / RFU CCDC152 (11751479_a_at) / Fold change /veh CCDC152 (11751479_a_at) / RFU FAM211A (11726209_a_at) / Fold change /veh FAM211A (11726209_a_at) / RFU RGS16 (11746705_a_at) / Fold change /veh RGS16 (11746705_a_at) / RFU VCAN (11755009_s_at) / Fold change /veh VCAN (11755009_s_at) / RFU RHOB (11743442_s_at) / Fold change /veh RHOB (11743442_s_at) / RFU RGS16 (11720943_a_at) / Fold change /veh RGS16 (11720943_a_at) / RFU RGS16 (11720944_at) / Fold change /veh RGS16 (11720944_at) / RFU, VPS4B / Fold change vs veh, VPS4B / RFU, CREB1 / Fold change vs veh, CREB1 / RFU, DNAJC13 / Fold change vs veh, DNAJC13 / RFU, GNAQ / Fold change vs veh, GNAQ / RFU, CDK5R1 / Fold change vs veh, CDK5R1 / RFU, ZRANB3 / Fold change vs veh, ZRANB3 / RFU, CUL4A / Fold change vs veh, CUL4A / RFU, CCNY / Fold change vs veh, CCNY / RFU, UFL1 / Fold change vs veh, UFL1 / RFU, COG3 / Fold change vs veh, COG3 / RFU, DIAPH2 / Fold change vs veh, DIAPH2 / RFU, SKA2 / Fold change vs veh, SKA2 / RFU, AFF3 / Fold change vs veh, AFF3 / RFU, LMF1 / Fold change vs veh, LMF1 / RFU, IPO11 / Fold change vs veh, IPO11 / RFU, DFFB / Fold change vs veh, DFFB / RFU, FOXP1 / Fold change vs veh, FOXP1 / RFU, CARD8 / Fold change vs veh, CARD8 / RFU, STRN3 / Fold change vs veh, STRN3 / RFU, ADK / Fold change vs veh, ADK / RFU, RASSF2 / Fold change vs veh, RASSF2 / RFU, WIPF1 / Fold change vs veh, WIPF1 / RFU, LARP1B / Fold change vs veh, LARP1B / RFU, RASA1 / Fold change vs veh, RASA1 / RFU, RB1 / Fold change vs veh, RB1 / RFU, PPFIA1 / Fold change vs veh, PPFIA1 / RFU, MAT2A / Fold change vs veh, MAT2A / RFU, CCT5 / Fold change vs veh, CCT5 / RFU, WDR92 / Fold change vs veh, WDR92 / RFU, CUX1 / Fold change vs veh, CUX1 / RFU, TTC7A / Fold change vs veh, TTC7A / RFU, TMEM135 / Fold change vs veh, TMEM135 / RFU, DEPTOR / Fold change vs veh, DEPTOR / RFU, CPM / Fold change vs veh, CPM / RFU, DNAJB6 / Fold change vs veh, DNAJB6 / RFU, CACNA2D3 / Fold change vs veh, CACNA2D3 / RFU, DTX4 / Fold change vs veh, DTX4 / RFU, TFCP2 / Fold change vs veh, TFCP2 / RFU, GMCL1 /// GMCL1P1 / Fold change vs veh, GMCL1 /// GMCL1P1 / RFU, AEBP2 / Fold change vs veh, AEBP2 / RFU, SNHG1 /// SNORD22 /// SNORD25 /// SNORD26 /// SNORD27 /// SNORD28 /// SNORD29 /// SNORD31 / Fold change vs veh, SNHG1 /// SNORD22 /// SNORD25 /// SNORD26 /// SNORD27 /// SNORD28 /// SNORD29 /// SNORD31 / Fold change (Aza/veh), C12orf56 (ProbeSet 11735607_a_at) / Fold change (ACY-1035/veh), C12orf56 (ProbeSet 11735607_a_at) / Fold change (Aza/veh), FGFR1OP (ProbeSet 11751329_s_at) / Fold change (ACY-1035/veh), FGFR1OP (ProbeSet 11751329_s_at) / Fold change (Aza/veh), VPS36 (ProbeSet 11739960_a_at) / Fold change (ACY-1035/veh), VPS36 (ProbeSet 11739960_a_at) / RFU SYPL1 (11715823_x_at) / Fold change /veh SYPL1 (11715823_x_at) / RFU IGFBP7 (11715501_s_at) / Fold change /veh IGFBP7 (11715501_s_at) / RFU REEP3 (11722064_at) / Fold change /veh REEP3 (11722064_at) / RFU IGLL1 (11728026_x_at) / Fold change /veh IGLL1 (11728026_x_at): dose or concentration left out as unconfirmed
Conditions: MV-4-11 cells, 48 hours

Nc1ncn([C@@H]2O[C@H](CO)[C@@H](O)[C@H]2O)c(=O)n1 [azacitidine]
Fold change /veh TMPRSS4 (11748680_a_at): 0.94
